Laboratory results taken from patent US12714709B2, “Pharmaceutical compositions comprising 2-[(4S)-8-fluoro-2-[4-(3-methoxyphenyl)piperazin-1-yl]-3-[2-methoxy-5-(trifluoromethyl)phenyl]-4H-quinazolin-4-yl]acetate and sodium ions” (priority 2020, dated 2026).
Where a name gives a salt, the structure may show the parent alone. Read-outs that look alike come from different tables or passages of the source.

Legend:
[1] = pH of letermovir forms and of letermovir free base with NaOH equivalents in water; format: physicochemical; settings: for Initial pH / pH after 1 week: no NaOH added
Method: The pH value of the samples was measured with a calibrated pH meter EUTEGH CAKTON PH/Ion 510 Serial n° 172361 with a Polilyte lab electrode. The sample is stirred and the electrode is introduced. A measurement is performed until the pH value is stable. Between measurements the electrode is thoroughly rinsed with water. The pH measurements were performed with an analysis volume of ~1-2 mL and a defined temperature of 22° C.±3° C. A 3-point calibration of the pH meter was performed on a daily basis, by using buffers with pH 7.00, pH 4.01 and pH 10.01 (Hamilton Duracal buffer).
A first set of letermovir samples was prepared by dissolving letermovir free base, letermovir sodium salt amorphous, letermovir sodium salt trihydrate or letermovir sodium salt monohydrate in water to prepare the solutions with the concentration of 20 mg/mL and 100 mg/mL with respect to letermovir free base in order to determine the differences in the pH immediately after dissolution and after 1 week and to check precipitation effects and solubility.
A second set of samples was prepared by adding different equivalents of sodium hydroxide (0.84, 0.86, 0.88 and 0.9 eq.) to letermovir free base solutions. Blank solutions with the same amounts of water and sodium hydroxide equivalents and without letermovir were also prepared for comparative reasons.
(§1) Procedure: The corresponding amount of water was added to each sample with further addition of the respective equivalents of 1 M aqueous NaOH to the samples of second set (Table 4, Table 5 and Table 6). No addition of NaOH was applied to the first set of samples.
(§2) The suspensions were stirred at room temperature and the pH was determined immediately after the preparation and after 1 week. The solubility and precipitation effects were also checked (Table 7, Table 8 and Table 9). […]

[2] = Solubility/precipitation in water, visual inspection; format: physicochemical; settings: for precipitation effects / dissolution over time, visual inspection: in water without sodium hydroxide, 20 and 100 mg/mL, over 1 week
Method: A first set of letermovir samples was prepared by dissolving letermovir free base, letermovir sodium salt amorphous, letermovir sodium salt trihydrate or letermovir sodium salt monohydrate in water to prepare the solutions with the concentration of 20 mg/mL and 100 mg/mL with respect to letermovir free base in order to determine the differences in the pH immediately after dissolution and after 1 week and to check precipitation effects and solubility. […]
as §1, §2

[3] = 20 mg/ml with respect to free base in water, Trihydrate
[4] = 100 mg/ml with respect to free base in water, Trihydrate
[5] = 20 mg/ml with respect to free base in water
[6] = 100 mg/ml with respect to free base in water
[7] = 20 mg/ml with respect to free base in water, Monohydrate
[8] = 100 mg/ml with respect to free base in water, Monohydrate

COc1cccc(N2CCN(C3=Nc4c(F)cccc4[C@H](CC(=O)O)N3c3cc(C(F)(F)F)ccc3OC)CC2)c1 [Sodium Salt Trihydrate]
Initial pH [1, 3]: 9.5 | pH after 1 week [1, 3]: 9.2 | Initial pH [1, 4]: 9.5 | pH after 1 week [1, 4]: 9.2 | Solubility/Precipitation ([2]; 20 mg/ml with respect to free base in water, no NaOH added, Trihydrate): Clear solution | Solubility/Precipitation ([2]; 100 mg/ml with respect to free base in water, no NaOH added, Trihydrate): Clear solution | precipitation effects / dissolution over time, visual inspection ([2]; listed as letermovir sodium dalt trihydrate, Trihydrate): completely clear without precipitation effects

COc1cccc(N2CCN(C3=Nc4c(F)cccc4[C@H](CC(=O)[O-])N3c3cc(C(F)(F)F)ccc3OC)CC2)c1.[Na+] [Sodium Salt Amorphous]
Initial pH [1, 5]: 9.2 | pH after 1 week [1, 5]: 9.0 | Initial pH [1, 6]: 9.3 | pH after 1 week [1, 6]: 9.1 | Solubility/Precipitation [2]: Clear solution | precipitation effects / dissolution over time, visual inspection [2]: completely clear without precipitation effects

COc1cccc(N2CCN(C3=Nc4c(F)cccc4[C@H](CC(=O)O)N3c3cc(C(F)(F)F)ccc3OC)CC2)c1 [Free Base, 2-[(4S)-8-fluoro-2-[4-(3-methoxyphenyl)-piperazin-1-yl]-3-[2-methoxy-5-(trifluoromethyl)phenyl]-4H-quinazolin-4-yl]acetic acid]
Initial pH [1, 5]: 6.1 | pH after 1 week [1, 5]: 6.1 | Initial pH [1, 6]: 6.3 | pH after 1 week [1, 6]: 6.2 | pH values of the solutions/suspension in water ([1]; in water without sodium hydroxide, 20 and 100 mg/mL, initial and after 1 week, listed as letermovir free base): around 6 | Solubility/Precipitation ([2]; 20 mg/ml with respect to free base in water, no NaOH added): Insoluble | Solubility/Precipitation ([2]; 100 mg/ml with respect to free base in water, no NaOH added): Insoluble | precipitation effects / dissolution over time, visual inspection ([2]; listed as letermovir free base): did not dissolve

COc1cccc(N2CCN(C3=Nc4c(F)cccc4[C@H](CC(=O)O)N3c3cc(C(F)(F)F)ccc3OC)CC2)c1 [Sodium Salt Monohydrate]
Initial pH [1, 7]: 9.2 | pH after 1 week [1, 7]: 8.9 | Initial pH [1, 8]: 9.2 | pH after 1 week [1, 8]: 9.0 | Solubility/Precipitation ([2]; 20 mg/ml with respect to free base in water, no NaOH added, Monohydrate): Clear solution | Solubility/Precipitation ([2]; 100 mg/ml with respect to free base in water, no NaOH added, Monohydrate): Clear solution | precipitation effects / dissolution over time, visual inspection ([2]; listed as letermovir sodium salt monohydrate, Monohydrate): completely clear without precipitation effects
